Reference: patent US20230302036A1, “COMPOSITIONS FOR TREATMENT OF SPINAL MUSCULAR ATROPHY” (priority 2020, published 2023)

System: SMA mice (Smn-/-; SMN2 2TG/0)
Experiment: Growth curves (body weight gain) of severe SMA mice
Format: in vivo, mouse
Conditions: ASO1 at P0 and P1 and/or VPA 10 µg/g s.c.
Method: Kaplan-Meier survival plot (FIG. 4A) and growth curves (FIG. 4B) of SMA mice, following subcutaneous administration at P0 and P1 of 16.8 µg ASO1 (n=18) or saline (n=14), one subcutaneous dose before P3 of 10 µg per g of body weight VPA (n=12), or both treatments together (n=20). ASO1-treated Smn^+/- heterozygote littermates (n=15) served as controls. Scramble (Ctrl) (n=12, 40 trials), VPA (n=13, 50 trials), ASO1 (n=11, 50 trials), ASO1 + VPA (n=17, 68 trials), and untreated heterozygotes (n=12, 36 trials). Statistical significance was analyzed by two-way repeated measures ANOVA. P < 0.05 was considered statistically significant; data are represented as mean + SD. In the righting-reflex test, the time it took a mouse to right itself […] on a flat surface was measured. In the grip-strength test, the angle at which the pups fell from a tablet with a rough to which they held on by their forelimbs was measured.
FIGS. 7A-H show ASO1 and TSA combined treatment in mice. Kaplan-Meier survival plot (FIG. 7A) and growth curves (FIG. 7B) of SMA mice after subcutaneous administration at P0 and P1 of 16.8 µg ASO1 (n=20) or vehicle (n=12), one subcutaneous dose of 10 µg per g of body weight TSA (n=15) at P2, or both treatments together (n=24), are shown. ASO1-treated heterozygotes (n=18) served as controls. Statistical significance was analyzed by two-way repeated measures ANOVA. […]

For `CCCC(CCC)C(=O)O` [VPA, valproic acid], the “body weight gain in the surviving mice” value was “lack of an effect per se”.
